Measured values taken from US10604535B2, “Compounds, compositions and methods” (Denali Therapeutics Inc., priority 2016, dated 2020).
Like-named read-outs stand apart in the source and are kept apart here.

How the values were obtained:
[1] = system: FADD-deficient Jurkat cells; assay: Cellular necroptosis assay (human TNFα-induced necrosis, CellTiter-Glo); assay type: cell-based; conditions: 48 h, TNFα 10 ng/mL, read-out: Cell IC50
GST-hRIPK1 (8-327) = GST-hRIPK1 (8-327) (Homo sapiens (Human), UniProt Q13546); assay: Fluorescent Polarization Binding (FP Binding) assay
Chain of GST-hRIPK1 (8-327) (Q13546 8-327): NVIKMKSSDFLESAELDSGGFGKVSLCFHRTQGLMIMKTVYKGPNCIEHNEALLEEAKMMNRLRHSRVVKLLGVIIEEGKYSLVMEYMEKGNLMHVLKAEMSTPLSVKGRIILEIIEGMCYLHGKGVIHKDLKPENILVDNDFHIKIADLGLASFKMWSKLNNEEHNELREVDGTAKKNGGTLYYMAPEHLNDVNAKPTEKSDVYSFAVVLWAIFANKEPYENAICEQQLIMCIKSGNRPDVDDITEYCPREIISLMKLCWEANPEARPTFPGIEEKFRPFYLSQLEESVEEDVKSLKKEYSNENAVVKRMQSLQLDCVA

| IC50 (GST-hRIPK1 (8-327)) [nM] | SMILES | IC50 ([1]; Homo sapiens, Jurkat) [nM] | IC50 [1] [nM] |
| --- | --- | --- | --- |
| 0.1 to 1000 | CN1C(=O)[C@@H](NC(=O)c2nnc(Cc3cc(F)cc(C#N)c3)[nH]2)COc2cccnc21 [Example 162, (S)-5-(3-cyano-5-fluorobenzyl)-N-(5-methyl-4-oxo-2,3,4,5-tetrahydropyrido[3,2-b][1,4]oxazepin-3-yl)-4H-1,2,4-triazole-3-carboxamide] | 0.1 to 1000 | – |
| 0.1 to 1000 | O=C(NC1COc2cccnc2-n2ccnc21)c1nn(Cc2ccccc2)cc1F (stereo in doubt) [Example 154B, (S)-1-benzyl-N-(6,7-dihydroimidazo[1,2-d]pyrido[3,2-b][1,4]oxazepin-7-yl)-4-fluoro-1H-pyrazole-3-carboxamide] | 0.1 to 1000 | – |
| 0.1 to 1000 | CN1C(=O)[C@@H](NC(=O)c2nnc(C3(c4ccccc4)CC3)s2)COc2ccccc21 [Example 58, (S)—N-(5-methyl-4-oxo-2,3,4,5-tetrahydrobenzo[b][1,4]oxazepin-3-yl)-5-(1-phenylcyclopropyl)-1,3,4-thiadiazole-2-carboxamide] | 0.1 to 1000 | – |
| 0.1 to 1000 | C[C@H]1Oc2cccnc2N(C)C(=O)[C@H]1NC(=O)c1nn(Cc2ccccc2)cc1Cl [Example 132, 1-Benzyl-4-chloro-N-((2R,3S)-2,5-dimethyl-4-oxo-2,3,4,5-tetrahydropyrido[3,2-b][1,4]oxazepin-3-yl)-1H-pyrazole-3-carboxamide] | 0.1 to 1000 | – |
| 0.1 to 1000 | CN1C(=O)[C@@H](NC(=O)c2nn(Cc3cccc(C#N)c3)cc2F)CCc2cccnc21 [Example 152B, (S)-1-(3-cyanobenzyl)-4-fluoro-N-(9-methyl-8-oxo-6,7,8,9-tetrahydro-5H-pyrido[2,3-b]azepin-7-yl)-1H-pyrazole-3-carboxamide] | 0.1 to 1000 | – |
| 0.1 to 1000 | CN1C(=O)[C@@H](NC(=O)c2nn(Cc3ccccc3)cc2F)CCc2cccnc21 [Example 111B, (S)-1-benzyl-4-fluoro-N-(9-methyl-8-oxo-6,7,8,9-tetrahydro-5H-pyrido[2,3-b]azepin-7-yl)-1H-pyrazole-3-carboxamide] | 0.1 to 1000 | – |
| 0.1 to 1000 | CN1C(=O)[C@@H](NC(=O)c2cc(Oc3ccccc3F)ccn2)[C@H]2C[C@H]2c2cccnc21 [Example 100A, 4-(2-fluorophenoxy)-N-((1aS,2S,8bR)-4-methyl-3-oxo-1,1a,2,3,4,8b-hexahydrocyclopropa[d]pyrido[2,3-b]azepin-2-yl)picolinamide] | 0.1 to 1000 | – |
| 0.1 to 1000 | CN1C(=O)[C@@H](NC(=O)c2nnc(Cc3ccccc3)[nH]2)COc2c(Cl)cccc21 [Example 32, (S)-5-benzyl-N-(9-chloro-5-methyl-4-oxo-2,3,4,5-tetrahydrobenzo[b][1,4]oxazepin-3-yl)-4H-1,2,4-triazole-3-carboxamide] | 0.1 to 1000 | – |
| 0.1 to 1000 | O=C(N[C@H]1COc2cccnc2NC1=O)c1ncc(Cc2ccccc2)s1 [Example 123, (S)-5-benzyl-N-(4-oxo-2,3,4,5-tetrahydropyrido[3,2-b][1,4]oxazepin-3-yl)thiazole-2-carboxamide] | 0.1 to 1000 | – |
| 0.1 to 1000 | CN1C(=O)[C@@H](NC(=O)c2nn(Cc3ccccc3F)cc2F)COc2cccnc21 [Example 133, (S)-4-Fluoro-1-(2-fluorobenzyl)-N-(5-methyl-4-oxo-2,3,4,5-tetrahydropyrido[3,2-b][1,4]oxazepin-3-yl)-1H-pyrazole-3-carboxamide] | 0.1 to 1000 | – |
| – | [2H]C([2H])([2H])N1C(=O)[C@@H](NC(=O)c2nnc(C3(c4ccccc4)CC3)o2)COc2cccnc21 [Example 173, (S)—N-(5-trideuteriomethyl-4-oxo-2,3,4,5-tetrahydropyrido[3,2-b][1,4]oxazepin-3-yl)-5-(1-phenylcyclopropyl)-1,3,4-oxadiazole-2-carboxamide] | 0.1 to 1000 | – |
| – | CN1C(=O)[C@@H](NC(=O)c2ncc(Cc3ccccc3)s2)COc2ccccc21 [Example 5, (S)-5-benzyl-N-(5-methyl-4-oxo-2,3,4,5-tetrahydrobenzo[b][1,4]oxazepin-3-yl)thiazole-2-carboxamide] | 0.1 to 1000 | – |
| – | O=C(N[C@H]1CCc2ccccc2-n2cnnc21)c1cc(Cc2ccccc2)on1 [Example 71A, (S)-5-benzyl-N-(5,6-dihydro-4H-benzo[f][11,2,4]triazolo[4,3-a]azepin-4-yl)isoxazole-3-carboxamide] | 0.1 to 1000 | – |
| – | CN1C(=O)[C@@H](NC(=O)c2nnc(Cc3ccccc3)[nH]2)C[C@@H](F)c2ccccc21 (mixture of isomers) [Example 11A, 5-benzyl-N-((3S,5R)-5-fluoro-1-methyl-2-oxo-2,3,4,5-tetrahydro-1H-benzo[b]azepin-3-yl)-4H-1,2,4-triazole-3-carboxamide and 5-benzyl-N-((3R,5S)-5-fluoro-1-methyl-2-oxo-2,3,4,5-tetrahydro-1H-benzo[b]azepin-3-yl)-4H-1,2,4-triazole-3-carboxamide] | – | 0.1 to 1000 |
| – | CN1C(=O)[C@@H](NC(=O)c2ncc(C3(c4ccccc4)CC3)s2)COc2cccnc21 [Example 63, (S)—N-(5-methyl-4-oxo-2,3,4,5-tetrahydropyrido[3,2-b][1,4]oxazepin-3-yl)-5-(1-phenylcyclopropyl)thiazole-2-carboxamide] | 0.1 to 1000 | – |
| – | O=C(N[C@H]1COc2cccnc2NC1=O)c1cc(C2(c3ccccc3)CC2)on1 [Example 62, (S)—N-(4-oxo-2,3,4,5-tetrahydropyrido[3,2-b][1,4]oxazepin-3-yl)-5-(1-phenylcyclopropyl)isoxazole-3-carboxamide] | 0.1 to 1000 | – |
| – | O=C(N[C@H]1COc2ccccc2-n2ccnc21)c1nnc(Cc2ccccc2)[nH]1 [Example 68A, (R)-5-benzyl-N-(4,5-dihydrobenzo[b]imidazo[1,2-d][1,4]oxazepin-4-yl)-4H-1,2,4-triazole-3-carboxamide] | 0.1 to 1000 | – |
| – | CN1C(=O)[C@@H](NC(=O)c2nn(Cc3ccccn3)cc2F)COc2cccnc21 [Example 74, (S)-4-fluoro-N-(5-methyl-4-oxo-2,3,4,5-tetrahydropyrido[3,2-b][1,4]oxazepin-3-yl)-1-(pyridin-2-ylmethyl)-1H-pyrazole-3-carboxamide] | 0.1 to 1000 | – |
| – | CN1C(=O)[C@@H](NC(=O)c2cc(C3(c4ccccc4)CC3)[nH]n2)COc2ccccc21 [Example 72, (S)—N-(5-methyl-4-oxo-2,3,4,5-tetrahydrobenzo[b][1,4]oxazepin-3-yl)-5-(1-phenylcyclopropyl)-1H-pyrazole-3-carboxamide] | 0.1 to 1000 | – |
| – | O=C(N[C@H]1CCc2ccccc2-n2cnnc21)c1nnc(Cc2ccccc2)[nH]1 [Example 69A, (S)-5-benzyl-N-(5,6-dihydro-4H-benzo[f][1,2,4]triazolo[4,3-a]azepin-4-yl)-4H-1,2,4-triazole-3-carboxamide] | 0.1 to 1000 | – |
| – | CN1C(=O)[C@@H](NC(=O)c2noc(Cc3ccccc3)n2)COc2cccnc21 [Example 215, (S)-5-benzyl-N-(5-methyl-4-oxo-2,3,4,5-tetrahydropyrido[3,2-b][1,4]oxazepin-3-yl)-1,2,4-oxadiazole-3-carboxamide] | 0.1 to 1000 | – |
| – | CN1C(=O)[C@@H](NC(=O)c2cc(Cc3ccccc3)on2)[C@H]2C[C@H]2c2cccnc21 [Example 81A, 5-benzyl-N-((1aS,2S,8bR)-4-methyl-3-oxo-1,1a,2,3,4,8b-hexahydrocyclopropa[d]pyrido[2,3-b]azepin-2-yl)isoxazole-3-carboxamide] | 0.1 to 1000 | – |
| – | CN1C(=O)[C@@H](NC(=O)c2nn(Cc3ccc(Cl)cn3)cc2F)COc2ccccc21 [Example 216, (S)-1-((5-chloropyridin-2-yl)methyl)-4-fluoro-N-(5-methyl-4-oxo-2,3,4,5-tetrahydrobenzo[b][1,4]oxazepin-3-yl)-1H-pyrazole-3-carboxamide] | 0.1 to 1000 | – |
| – | CN1C(=O)[C@@H](NC(=O)c2nc3cccc(-c4ccccc4)c3s2)COc2ccccc21 [Example 84, (S)—N-(5-methyl-4-oxo-2,3,4,5-tetrahydrobenzo[b][1,4]oxazepin-3-yl)-7-phenylbenzo[d]thiazole-2-carboxamide] | 0.1 to 1000 | – |
| – | CN1C(=O)[C@@H](NC(=O)c2cc(Cc3ccccc3)[nH]n2)[C@H]2C[C@H]2c2ccccc21 [Example 60A, 5-benzyl-N-((1aS,2S,8bR)-4-methyl-3-oxo-1,1a,2,3,4,8b-hexahydrobenzo[b]cyclopropa[d]azepin-2-yl)-1H-pyrazole-3-carboxamide] | 0.1 to 1000 | – |
| – | CN1C(=O)[C@@H](NC(=O)c2cc(Cc3ccccc3)[nH]n2)CC2(CC2)c2ccccc21 [Example 59, 5-benzyl-N-[(3S)-1-methyl-2-oxo-1,2,3,4-tetrahydrospiro[1-benzazepine-5,1-cyclopropane]-3-yl]-1H-pyrazole-3-carboxamide] | 0.1 to 1000 | – |
| – | CN1C(=O)[C@@H](NC(=O)c2nnc(Cc3ccccc3)[nH]2)C[C@H](F)c2ccccc21 (mixture of isomers) [Example 12, 5-benzyl-N-((3S,5S)-5-fluoro-1-methyl-2-oxo-2,3,4,5-tetrahydro-1H-benzo[b]azepin-3-yl)-4H-1,2,4-triazole-3-carboxamide and 5-benzyl-N-((3R,5R)-5-fluoro-1-methyl-2-oxo-2,3,4,5-tetrahydro-1H-benzo[b]azepin-3-yl)-4H-1,2,4-triazole-3-carboxamide] | 0.1 to 1000 | – |
| – | CN1C(=O)[C@@H](NC(=O)c2cc(C3(c4ccccc4)CC3)[nH]n2)COc2cccnc21 [Example 73, (S)—N-(5-methyl-4-oxo-2,3,4,5-tetrahydropyrido[3,2-b][1,4]oxazepin-3-yl)-5-(1-phenylcyclopropyl)-1H-pyrazole-3-carboxamide] | 0.1 to 1000 | – |

| SMILES | IC50 (GST-hRIPK1 (8-327)) [nM] | IC50 ([1]; Homo sapiens, Jurkat) [nM] | IC50 [1] [nM] |
| --- | --- | --- | --- |
| Cc1c(F)c(C(=O)N[C@H]2COc3ccccc3NC2=O)nn1Cc1ccccc1 [Example 45, (S)-1-benzyl-4-fluoro-5-methyl-N-(4-oxo-2,3,4,5-tetrahydrobenzo[b][1,4]oxazepin-3-yl)-1H-pyrazole-3-carboxamide] | 0.1 to 1000 | 0.1 to 1000 | – |
| C[C@H]1Oc2cccnc2N(C)C(=O)[C@H]1NC(=O)c1cn(Cc2ccccc2)nn1 [Example 203, 1-benzyl-N-((2R,3S)-2,5-dimethyl-4-oxo-2,3,4,5-tetrahydropyrido[3,2-b][1,4]oxazepin-3-yl)-1H-1,2,3-triazole-4-carboxamide] | 0.1 to 1000 | 0.1 to 1000 | – |
